Source: patent US20190211397A1, “INHIBITORS OF GPR132 FOR USE IN PREVENTING AND/OR TREATING CHEMOTHERAPY-INDUCED NEUROPATHIC PAIN” (Fraunhofer-Gesellschaft zur Foerderung der angewandten …, priority 2016, published 2019)
Entries after “also recorded” stand apart in the source; their conditions may differ.

Assays:
[1] = molecular target: T1, TRPA1 (Mus musculus, UniProt Q8BLA8); assay: Calcium imaging of DRG neurons: TRPA1 sensitization (allyl isothiocyanate); type: cell-based, mice; conditions: activated with AITC 50 μM
T1 construct: endogenous in cells; host or cells: primary murine dorsal root ganglion (DRG) neurons
Protocol: (§1) DRG primary cultures were prepared as described previously (Brenneis et al., 2011 b). Briefly, twenty to thirty murine dorsal roots ganglia (DRGs) were dissected from spinal segments and transferred directly into ice-cold Hanks' balanced salt solution with CaCI2 and MgCI2 (lnvitrogen, Carlsbad, Calif., USA). The DRGs were than incubated with Neurobasal Medium (lnvitrogen, Carlsbad, Calif., USA) containing 500 U/ml collagenase (Sigma, Deisenhofen, Germany) and 2.5 U/ml dispase II (Roche, Mannheim, Germany) for 75 mins at 37° C. After removal of the collagenase/dispase-solution cells were washed three times with medium containing 10% FCS, penicillin/streptomycin/gentamycin (lnvitrogen, Carlsbad, Calif., USA) and incubated in 0.05% trypsin for 10 min at 37° C. After two washing steps, the cells were mechanically dissociated with a 1 ml pipette and plated on Poly-L-lysine (Sigma) coated coverslips. […]
(§2) Calcium-imaging experiments were performed with a Leica calcium-imaging setup, consisting of a Leica DMI 4000 b inverted microscope equipped with a DFC360 FX (CCD) camera, Fura-2 filters, and an N-Plan 10×/0.25 Ph1 objective (all from Leica), was used. […] For each experiment, an area with large cell numbers 24 h after preparation (see DRG primary cultures) was chosen and 40-110 cells were monitored simultaneously. […]

[2] = molecular target: T2, G2A receptor (GPR132) (Homo sapiens, UniProt Q9UNW8); assay: Calcium in HEK cells transfected with G2A (FURA-2); type: cell-based; set-up: expressed in transfected cells; conditions: HEK cells overexpressing G2A, 9-HODE 1 μM
T2 sequence (Q9UNW8 1-380): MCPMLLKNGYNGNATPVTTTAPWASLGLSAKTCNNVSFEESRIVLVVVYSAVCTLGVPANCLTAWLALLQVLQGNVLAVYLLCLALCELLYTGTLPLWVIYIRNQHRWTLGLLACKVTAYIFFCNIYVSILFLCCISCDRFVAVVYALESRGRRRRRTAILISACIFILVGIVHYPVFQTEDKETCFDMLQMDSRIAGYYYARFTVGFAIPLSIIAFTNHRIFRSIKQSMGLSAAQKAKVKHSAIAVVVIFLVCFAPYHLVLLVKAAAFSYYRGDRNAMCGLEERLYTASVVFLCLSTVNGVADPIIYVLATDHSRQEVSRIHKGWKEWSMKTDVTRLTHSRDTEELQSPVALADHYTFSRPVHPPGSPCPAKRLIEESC

[3] = tested on: DRG neurons; assay: Neuronal CGRP release from DRG neurons; type: cell-based, mice; conditions: 9-HODE 1 μM with capsaicin 400 nM, 10 min
Protocol: For the determination of neuronal calcitonin gene-related peptide (CGRP) release, dorsal root ganglia (DRGs) neurons were isolated from mice as previously described (Brenneis et al., 2011 a). Briefly, DRG cultures were stimulated for 10 m in with 1 μM (±) 9-HODE (Cayman) alone or in combination with 400 nM capsaicin (Sigma). Cultures supplemented with capsaicin alone served as control. CGRP concentrations in supernatants were analysed utilizing the rat CGRP Enzyme ImmunoAssay Kit (SPI-Bio, Montigny, France) according to the manufacturer's instructions. Absorption was measured with the help of the Spectra Max 250 (Molecular Devices, lsmaning, Germany)

[4] = molecular target: T3, TRPM8 (Mus musculus, UniProt Q8R4D5); assay: Calcium imaging of DRG neurons: TRPM8 sensitization (menthol); type: cell-based, mice; conditions: activated with menthol 100 μM
T3 construct: endogenous in cells; host or cells: primary murine dorsal root ganglion (DRG) neurons
Protocol: as §1, §2

T3 sequence (Q8R4D5 whole entry): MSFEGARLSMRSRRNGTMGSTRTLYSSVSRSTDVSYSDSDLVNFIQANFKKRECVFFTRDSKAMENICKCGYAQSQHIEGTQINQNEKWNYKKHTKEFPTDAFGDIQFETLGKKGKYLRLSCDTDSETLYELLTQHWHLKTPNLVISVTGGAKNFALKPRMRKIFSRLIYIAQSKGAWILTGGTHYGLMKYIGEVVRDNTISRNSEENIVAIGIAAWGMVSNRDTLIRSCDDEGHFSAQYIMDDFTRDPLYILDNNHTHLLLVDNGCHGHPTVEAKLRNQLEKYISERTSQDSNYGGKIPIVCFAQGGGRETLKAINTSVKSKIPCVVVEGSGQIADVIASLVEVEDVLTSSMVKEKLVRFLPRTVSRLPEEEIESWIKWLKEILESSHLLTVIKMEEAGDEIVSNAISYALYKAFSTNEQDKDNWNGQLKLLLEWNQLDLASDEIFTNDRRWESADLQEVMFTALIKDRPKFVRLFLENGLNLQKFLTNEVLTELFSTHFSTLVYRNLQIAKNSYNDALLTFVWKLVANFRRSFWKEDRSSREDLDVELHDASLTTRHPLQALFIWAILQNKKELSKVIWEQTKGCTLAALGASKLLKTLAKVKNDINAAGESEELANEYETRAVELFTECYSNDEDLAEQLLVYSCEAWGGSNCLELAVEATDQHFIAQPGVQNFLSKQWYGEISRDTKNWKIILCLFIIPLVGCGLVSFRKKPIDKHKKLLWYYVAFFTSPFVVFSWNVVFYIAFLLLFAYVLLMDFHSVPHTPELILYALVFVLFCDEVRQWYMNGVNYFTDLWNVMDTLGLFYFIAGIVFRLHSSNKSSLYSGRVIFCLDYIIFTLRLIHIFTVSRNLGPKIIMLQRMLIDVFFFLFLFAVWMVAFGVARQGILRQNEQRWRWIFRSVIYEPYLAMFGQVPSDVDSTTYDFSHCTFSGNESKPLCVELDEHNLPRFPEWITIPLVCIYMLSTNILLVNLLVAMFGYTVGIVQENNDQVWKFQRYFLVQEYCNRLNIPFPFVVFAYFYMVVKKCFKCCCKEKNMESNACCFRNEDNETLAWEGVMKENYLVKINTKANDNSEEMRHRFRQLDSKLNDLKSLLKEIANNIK
T1 sequence (Q8BLA8 whole entry): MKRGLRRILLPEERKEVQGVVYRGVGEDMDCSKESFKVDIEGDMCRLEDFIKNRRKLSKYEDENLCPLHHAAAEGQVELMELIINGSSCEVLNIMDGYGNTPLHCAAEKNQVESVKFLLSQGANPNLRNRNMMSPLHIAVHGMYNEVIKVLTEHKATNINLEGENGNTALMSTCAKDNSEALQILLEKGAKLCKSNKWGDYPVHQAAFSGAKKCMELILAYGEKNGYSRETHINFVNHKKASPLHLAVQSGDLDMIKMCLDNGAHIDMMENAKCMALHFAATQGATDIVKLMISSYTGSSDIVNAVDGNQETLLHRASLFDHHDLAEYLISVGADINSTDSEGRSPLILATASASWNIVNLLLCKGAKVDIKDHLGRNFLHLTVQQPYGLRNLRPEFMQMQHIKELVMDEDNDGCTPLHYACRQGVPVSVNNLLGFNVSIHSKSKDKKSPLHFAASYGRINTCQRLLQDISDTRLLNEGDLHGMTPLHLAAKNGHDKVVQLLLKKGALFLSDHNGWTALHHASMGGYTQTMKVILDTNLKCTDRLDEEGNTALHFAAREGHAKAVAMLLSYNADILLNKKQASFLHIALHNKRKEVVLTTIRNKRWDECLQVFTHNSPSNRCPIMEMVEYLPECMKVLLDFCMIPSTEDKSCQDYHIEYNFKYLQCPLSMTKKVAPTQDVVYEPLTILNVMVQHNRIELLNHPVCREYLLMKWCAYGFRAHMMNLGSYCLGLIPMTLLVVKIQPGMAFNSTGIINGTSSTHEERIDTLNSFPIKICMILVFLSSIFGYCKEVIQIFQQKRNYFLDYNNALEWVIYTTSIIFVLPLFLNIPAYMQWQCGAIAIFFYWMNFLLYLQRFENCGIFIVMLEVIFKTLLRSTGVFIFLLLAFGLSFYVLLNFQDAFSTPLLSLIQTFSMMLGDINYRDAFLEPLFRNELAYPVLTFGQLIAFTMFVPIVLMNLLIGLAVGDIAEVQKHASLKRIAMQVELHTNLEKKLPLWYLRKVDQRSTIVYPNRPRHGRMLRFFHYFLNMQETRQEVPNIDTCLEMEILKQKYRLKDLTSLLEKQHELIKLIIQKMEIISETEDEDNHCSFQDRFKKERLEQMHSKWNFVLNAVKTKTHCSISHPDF

CCCCC/C=C\C=C\C(O)CCCCCCCC(=O)O (stereo not shown) [9-HODE, 9-hydroxy-10E,12Z-octadecadienoic acid]
sensitizing effects for TRPA1 [1]: no sensitizing effects | intracellular calcium concentrations [2]: caused calcium-release; also recorded: increased intracellular calcium concentrations | capsaicin-dependent CGRP release [3]: increased the capsaicin-dependent CGRP release significantly | sensitizing effects for TRPM8 [4]: no sensitizing effects
